Like-named read-outs stand apart in the source and are kept apart here.
Target: Factor D (Homo sapiens (Human), UniProt P00746)
Assay: biochemical
Format: biochemical

Factor D, sequence (P00746 26-253): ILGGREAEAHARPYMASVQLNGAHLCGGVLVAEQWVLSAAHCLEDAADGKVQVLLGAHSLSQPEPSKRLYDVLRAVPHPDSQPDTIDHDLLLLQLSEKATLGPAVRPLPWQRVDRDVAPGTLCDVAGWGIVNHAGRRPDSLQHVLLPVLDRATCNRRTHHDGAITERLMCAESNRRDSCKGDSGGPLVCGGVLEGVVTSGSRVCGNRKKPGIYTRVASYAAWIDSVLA

Row | Compound | IC50 (read-out: IC50) [nM] | IC50 [nM]
1 | 2S,3R)-3-(2-Methoxy-ethylamino)-pyrrolidine-1,2-dicarboxylic acid 1-[(1-carbamoyl-1H-indol-3-yl)-amide]2-(3-chloro-2-fluoro-benzylamide [Example 423] | 780 | 
2 | 2S,3R)-3-Acetylamino-pyrrolidine-1,2-dicarboxylic acid 1-[(1-carbamoyl-1H-indol-3-yl)-amide]2-(3-chloro-2-fluoro-benzylamide [Example 422] | 888 | 
3 | NC(=O)n1cc(NC(=O)N2C[C@H](F)C[C@H]2C(=O)NC2CCOc3ccc(Cl)cc32)c2ccccc21 (mixture of isomers) [Example 326, (2S,4R)-4-Fluoro-pyrrolidine-1,2-dicarboxylic acid 1-[(1-carbamoyl-1H-indol-3-yl)-amide] 2-[(6-chloro-chroman-4-yl)-amide] (mixture of 2 diastereomers)] | 7150 | 
4 | NC(=O)n1cc(NC(=O)N2N=CCC2C(=O)NCc2cccc(Cl)c2F)c2ccccc21 (racemic) [Example 201, 4,5-Dihydro-pyrazole-1,5-dicarboxylic acid 1-[(1-carbamoyl-1H-indol-3-yl)-amide] 5-(3-chloro-2-fluoro-benzylamide)] | 20 | 
5 | NC(=O)n1cc(NC(=O)N2C[C@@H](N)C[C@H]2C(=O)NC[C@H]2CCCC[C@@H]2O)c2ccccc21 (relative stereo) [Example 75, (2S,4S)-4-Amino-pyrrolidine-1,2-dicarboxylic acid 1-[(1-carbamoyl-1H-indol-3-yl)-amide] 2-[((1R*,2S*)-2-hydroxy-cyclohexylmethyl)-amide]] |  | 12600
6 | NC(=O)n1cc(NC(=O)N2C[C@H]3C[C@H]3[C@H]2C(=O)NCc2cccc(Cl)c2)c2ccccc21 (relative stereo) [Example 167, (1R*,2S*,5S*)-3-Aza-bicyclo[3.1.0]hexane-2,3-dicarboxylic acid 3-[(1-carbamoyl-1H-indol-3-yl)-amide] 2-(3-chloro-benzylamide)] |  | 108
7 | NC(=O)n1cc(NC(=O)N2C[C@@H]3C[C@@H]3[C@H]2C(=O)NCc2cccc(Cl)c2F)c2cc(OCCO)ccc21 (relative stereo) [Example 382, 1S*,2S*,5R*)-3-Aza-bicyclo[3.1.0]hexane-2,3-dicarboxylic acid 3-{[1-carbamoyl-5-(2-hydroxy-ethoxy)-1H-indol-3-yl]-amide}2-(3-chloro-2-fluoro-benzylamide] |  | 184
8 | NC(=O)n1cc(CC(=O)N2C[C@@H]3C[C@@H]3[C@H]2C(=O)NCc2cccc(Cl)c2F)c2cc(OCCO)ccc21 (relative stereo) [Example 465, 3-{2-[(1S*,2S*,5R*)-2-(3-Chloro-2-fluoro-benzylcarbamoyl)-3-aza-bicyclo[3.1.0]hex-3-yl]-2-oxo-ethyl}-5-(2-hydroxy-ethoxy)-indole-1-carboxylic acid amide] |  | 1590
9 | NC(=O)n1cc(NC(=O)N2N=CC[C@H]2C(=O)NCc2cccc(Cl)c2F)c2ccccc21 (single isomer, unassigned) [Example 362, S^§)-4,5-Dihydro-pyrazole-1,5-dicarboxylic acid 1-[(1-carbamoyl-1H-indol-3-yl)-amide]5-(3-chloro-2-fluoro-benzylamide] | 5 | 
10 | NC(=O)n1cc(NC(=O)N2N=CC[C@@H]2C(=O)NCc2cccc(Cl)c2F)c2ccccc21 (single isomer, unassigned) [Example 363, R^§)-4,5-Dihydro-pyrazole-1,5-dicarboxylic acid 1-[(1-carbamoyl-1H-indol-3-yl)-amide]5-(3-chloro-2-fluoro-benzylamide] | 9250 | 
11 | C[C@@H](NC(=O)[C@@H]1[C@H](O)CCN1C(=O)Nc1cn(C(N)=O)c2ccccc12)c1cccc(Cl)c1F (single isomer, unassigned) [Example 364] | 900 | 
12 | C[C@H](NC(=O)[C@@H]1[C@H](O)CCN1C(=O)Nc1cn(C(N)=O)c2ccccc12)c1cccc(Cl)c1F (single isomer, unassigned) [Example 365] | 45 | 
13 | COC(=O)C(NC(=O)[C@@H]1C[C@H](N)CN1C(=O)Nc1cn(C(N)=O)c2ccccc12)C(C)C (stereo in doubt) [Example 94, (R)-2-{[(2S,4S)-4-Amino-1-(1-carbamoyl-1H-indol-3-ylcarbamoyl)-pyrrolidine-2-carbonyl]-amino}-3-methyl-butyric acid methyl ester] | 11000 | 
14 | NC(=O)n1cc(NC(=O)N2C[C@H](F)C[C@H]2C(=O)NCc2cccc(Cl)c2F)c2ccccc21 [Example 1] | 7 | 
15 | NC(=O)n1cc(NC(=O)N2C[C@H](F)C[C@H]2C(=O)NCc2ccccc2)c2ccccc21 [Example 2, (2S,4R)-4-Fluoro-pyrrolidine-1,2-dicarboxylic acid 2-benzylamide 1-[(1-carbamoyl-1H-indol-3-yl)-amide]] | 25 | 
16 | NC(=O)n1cc(NC(=O)N2C[C@H](F)C[C@H]2C(=O)NCc2cccnc2)c2ccccc21 [Example 3, (2S,4R)-4-Fluoro-pyrrolidine-1,2-dicarboxylic acid 1-[(1-carbamoyl-1H-indol-3-yl)-amide] 2-[(pyridin-3-ylmethyl)-amide]] | 450 | 

Row | Compound | IC50 (read-out: IC50) [nM] | IC50 [nM]
17 | COCCN(C)Cc1cc(Cl)c(F)c(CNC(=O)[C@@H]2C[C@@H](F)CN2C(=O)Nc2cn(C(N)=O)c3ccccc23)c1 [Example 4, (2S,4R)-4-Fluoro-pyrrolidine-1,2-dicarboxylic acid 1-[(1-carbamoyl-1H-indol-3-yl)-amide] 2-(3-chloro-2-fluoro-5-{[(2-methoxy-ethyl)-methyl-amino]-methyl}-benzylamide)] | 3980 | 
18 | NC(=O)n1cc(NC(=O)N2C[C@H](F)C[C@H]2C(=O)N[C@H](CO)c2cccc(Cl)c2F)c2ccccc21 [Example 5, (2S,4R)-4-Fluoro-pyrrolidine-1,2-dicarboxylic acid 1-[(1-carbamoyl-1H-indol-3-yl)-amide] 2-{[(S)-1-(3-chloro-2-fluoro-phenyl)-2-hydroxy-ethyl]-amide}] | 30 | 
19 | NC(=O)n1cc(NC(=O)N2C[C@H](F)C[C@H]2C(=O)NCc2ccncc2)c2ccccc21 [Example 6, (2S,4R)-4-Fluoro-pyrrolidine-1,2-dicarboxylic acid 1-[(1-carbamoyl-1H-indol-3-yl)-amide] 2-[(pyridin-4-ylmethyl)-amide]] | 2100 | 
20 | NC(=O)n1cc(NC(=O)N2C[C@H](F)C[C@H]2C(=O)NCc2cccc(Cl)c2)c2ccccc21 [Example 8, (2S,4R)-4-Fluoro-pyrrolidine-1,2-dicarboxylic acid 1-[(1-carbamoyl-1H-indol-3-yl)-amide] 2-(3-chloro-benzylamide)] | 9 | 
21 | NC(=O)n1cc(NC(=O)N2C[C@H](F)C[C@H]2C(=O)NCc2cccc(O)c2)c2ccccc21 [Example 9, (2S,4R)-4-Fluoro-pyrrolidine-1,2-dicarboxylic acid 1-[(1-carbamoyl-1H-indol-3-yl)-amide] 2-(3-hydroxy-benzylamide)] | 250 | 
22 | CN1CCN(Cc2cc(Cl)c(F)c(CNC(=O)[C@@H]3C[C@@H](F)CN3C(=O)Nc3cn(C(N)=O)c4ccccc34)c2)CC1 [Example 10, (2S,4R)-4-Fluoro-pyrrolidine-1,2-dicarboxylic acid 1-[(1-carbamoyl-1H-indol-3-yl)-amide] 2-[3-chloro-2-fluoro-5-(4-methyl-piperazin-1-ylmethyl)-benzylamide]] | 604 | 
23 | NC(=O)n1cc(NC(=O)N2C[C@H](F)C[C@H]2C(=O)NCc2ccc(Cl)s2)c2ccccc21 [Example 11, (2S,4R)-4-Fluoro-pyrrolidine-1,2-dicarboxylic acid 1-[(1-carbamoyl-1H-indol-3-yl)-amide] 2-[(5-chloro-thiophen-2-ylmethyl)-amide]] | 7 | 
24 | CCN(CC)Cc1cc(Cl)c(F)c(CNC(=O)[C@@H]2C[C@@H](F)CN2C(=O)Nc2cn(C(N)=O)c3ccccc23)c1 [Example 12, (2S,4R)-4-Fluoro-pyrrolidine-1,2-dicarboxylic acid 1-[(1-carbamoyl-1H-indol-3-yl)-amide] 2-(3-chloro-5-diethylamino-methyl-2-fluoro-benzyl-amide)] | 11100 | 
25 | NC(=O)n1cc(NC(=O)N2C[C@H](F)C[C@H]2C(=O)N[C@H](CO)c2ccccc2)c2ccccc21 [Example 13, (2S,4R)-4-Fluoro-pyrrolidine-1,2-dicarboxylic acid 1-[(1-carbamoyl-1H-indol-3-yl)-amide] 2-[((S)-2-hydroxy-1-phenyl-ethyl)-amide]] | 139 | 
26 | CC[C@H](C)[C@H](NC(=O)[C@@H]1C[C@@H](F)CN1C(=O)Nc1cn(C(N)=O)c2ccccc12)C(=O)OC(C)(C)C [Example 15, (2S,3S)-2-{[(2S,4R)-1-(1-Carbamoyl-1H-indol-3-ylcarbamoyl)-4-fluoro-pyrrolidine-2-carbonyl]-amino}-3-methyl-pentanoic acid tert-butyl ester] | 1100 | 
27 | CN(C)CCN(C)Cc1cc(Cl)c(F)c(CNC(=O)[C@@H]2C[C@@H](F)CN2C(=O)Nc2cn(C(N)=O)c3ccccc23)c1 [Example 17, (2S,4R)-4-Fluoro-pyrrolidine-1,2-dicarboxylic acid 1-[(1-carbamoyl-1H-indol-3-yl)-amide] 2-(3-chloro-5-{[(2-dimethylamino-ethyl)-methyl-amino]-methyl}-2-fluoro-benzylamide)] | 4050 | 
28 | NC(=O)n1cc(NC(=O)N2C[C@H](F)C[C@H]2C(=O)NCc2cc(CN3CCOCC3)cc(Cl)c2F)c2ccccc21 [Example 18, (2S,4R)-4-Fluoro-pyrrolidine-1,2-dicarboxylic acid 1-[(1-carbamoyl-1H-indol-3-yl)-amide] 2-(3-chloro-2-fluoro-5-morpholin-4-ylmethyl-benzylamide)] | 815 | 
29 | COC1CCN(Cc2cc(Cl)c(F)c(CNC(=O)[C@@H]3C[C@@H](F)CN3C(=O)Nc3cn(C(N)=O)c4ccccc34)c2)CC1 [Example 20, (2S,4R)-4-Fluoro-pyrrolidine-1,2-dicarboxylic acid 1-[(1-carbamoyl-1H-indol-3-yl)-amide] 2-(3-chloro-2-fluoro-5-(4-methoxy-piperidin-1-ylmethyl)-benzylamide]] | 1130 | 
30 | NC(=O)n1cc(NC(=O)N2C[C@H](F)C[C@H]2C(=O)NCc2ccccc2C(=O)O)c2ccccc21 [Example 23, 2-({[(2S,4R)-1-(1-Carbamoyl-1H-indol-3-ylcarbamoyl)-4-fluoro-pyrrolidine-2-carbonyl]-amino}-methyl)-benzoic acid] | 1850 | 
31 | NC(=O)n1cc(NC(=O)N2C[C@H](F)C[C@H]2C(=O)NCc2cccc(C(=O)O)c2)c2ccccc21 [Example 24] | 1700 | 

— patent US9085555B2, “Complement pathway modulators and uses thereof” (priority 2011, dated 2015)
